Test results from patent publication US20150335565A1, “IRRITATION MITIGATING POLYMERS AND USES THEREFOR” (LUBRIZOL ADVANCED MATERIALS, INC., priority 2012, published 2015).
Like-named read-outs stand apart in the source and are kept apart here.

Columns and labels:
[1] = tested on: Epiderm™ Human Tissue Model (EPI-200); assay: MTT tissue viability assay (ET-50 protocol) for skin irritancy
Experimental: (§1) Mitigation of skin irritancy induced by sodium dodecyl sulfate (SDS) surfactant dosed with the polymer of Example 56 is assessed in the Epiderm™ Human Tissue Model (EPI-200) bioassay conducted by MatTek Corporation, Ashland, Mass. The MatTek bioassay utilizes human derived epidermal keratinocytes (NHEK) which have been cultured to form a multilayered, highly differentiated model of the human epidermis.
(§2) The MTT tissue viability assay measures the NAD(P)H dependent microsomal enzyme reduction of MTT (and to a lesser extent, the succinate dehydrogenase reduction of MTT) after exposure to a treated skin culture test sample for various exposure times. The duration of exposure resulting in a 50% decrease in MTT conversion in test formulation treated EpiDerm™ cultures, relative to control cultures, is determined (ET-50).
(§3) A SDS surfactant/polymer test formulation is formulated from the components set forth in Table 10 and evaluated for irritancy potential using the MTT viability assay. Test samples containing neat SDS surfactant (no polymer) are formulated for comparative purposes.
(§4) Skin tissue culture inserts (Cat. No. EPI-200) are pre-incubated in the wells of 6-well plates containing 0.9 ml of MatTek assay medium (Cat. No. EPI-100-ASY) for 1 hr. at 37° C. in a humidified atmosphere of 5% CO2 in air. The 6-well plates containing the tissue culture inserts are removed from the incubator and the assay media is aspirated from the wells and replaced by an additional aliquot of 0.9 ml of pre-warmed (37° C.) assay media. For each exposure time wells are then dosed (2 repetitions) with 100 μl of the test formulations set forth in Table 10 (3 tissue culture wells are dosed with 100 μl ultra-pure water as a negative control for each of the test candidates). In addition, 100 μl of a positive control formulation (1% Triton X-100 in ultrapure water) is dosed into tissue culture wells (3 repetitions for each exposure time), as well as 3 repetitions of ultrapure water as a negative control. The exposure times of the test formulations, negative control and positive control are set forth below.
(§5) MTT assay plates are prepped by preparing a 24-well plate by adding 300 μl of MTT reagent solution to an appropriate number of wells to accommodate the test. The MTT reagent is utilized at a concentration of 1 mg/ml of MTT diluted in Dulbecco's Modified Eagle Medium (DMEM). The MTT/DMEM solution is centrifuged and decanted to remove any precipitate before use.
(§6) After exposure times of 60 (1 hr.), 120 (2 hrs.) and 210 (3.5 hrs.) minutes to the test solutions, the tissue cultures are removed from the incubator and thoroughly rinsed (2 times) with Dulbecco's phosphate buffered saline (DPBS) to remove the test material. The negative control is exposed for 4 hours and the positive control is exposed for time periods of 4, 6, 8, and 10 hours. Any remaining rinse media is decanted from the top of the tissue cultures. Each tissue culture insert is transferred to an appropriately labeled well of the 24-well plate containing the MTT reagent solution and placed back in the incubator. After 30 minutes reaction with the MTT reagent, the tissue cultures are removed from the incubator. Each tissue culture insert is removed from its well and the bottom is gently blotted with a lab tissue. The inserts are immersed into a labeled 24-well extraction plate containing 2 ml of isopropanol extractant solution. […]

[2] = as above; conditions: human
Experimental: as §1, §2, §3, §4, §5, §6

Molecule | ET-50 (exposure time which reduces tissue viability to 50%) ([1]; interpolated between exposure times that bracket 50% viability) [h] | viability at 1 hr [2] [%] | viability at 2 hr [2] [%] | viability at 3.5 hr [2] [%] | ET-50 (exposure time which reduces tissue viability to 50%) [1] [h]
CCCCCCCCCCCCOS(=O)(=O)[O-].[Na+] [Neat Surfactant, sodium dodecyl sulfate] | 1.41 | 72 | 28 | 19.6 | 
Triton X-100 [1% Triton X-100] |  |  |  |  | 5.93
